Laboratory results reported in patent publication US10709724B2, “Methods of treating mitochondrial dysfunction” (Ecole Polytechnique Federale de Lausanne (EPFL), priority 2011, dated 2020).
Several values for one entry are separate records, joined by “and”; a condition that tells them apart may be missing. Identical values can stand only once. Entries after “also recorded” stand apart in the source; their conditions may differ.

Assays:
C. elegans [1] = experiment: Worm lifespan analysis; type: in vivo; settings: for variation compared to control (%): vs N2 + water
Procedure: Worm Lifespan Analysis Lifespan tests were performed as described in Mouchiroud et al (L. Mouchiroud et al., Pyruvate imbalance mediates metabolic reprogramming and mimics lifespan extension by dietary restriction in Caenorhabditis elegans. Aging Cell 10, 39 (2011)). Briefly, 60-100 animals were used per conditions and scored every other day. All lifespan experiments were performed at 20° C. […] Animals were exposed to compounds during the full life from eggs until death. To ensure a permanent exposure to the compound, plates were changed twice a week. All the compounds used in this study were dissolved in a water stock solution.

C. elegans [2] = experiment: Worm fluorescence analysis (endogenous gut fluorescence/lipofuscin, sod-3::GFP); settings: in vivo
Procedure: Fluorescence Analysis Quantification of GFP expression and endogenous gut fluorescence were carried out according to the protocol as described in Yamamoto et al. (Yamamoto et al., NCoR1 is a conserved physiological modulator of muscle mass and oxidative function. Cell 147, 827 (2011)). Briefly, GFP was monitored in day 1 or day 3 adults. Fluorimetric assays were performed using a Victor X4 multilabel plate reader (Perkin-Elmer Life Science). Eighty worms were picked at random (20 worms per well of a black-walled 96-well plate) and each well was read four times and averaged. Each experiment was repeated at least three times. Endogenous gut fluorescence was monitored at day 1, day 4 and day 8 by following the same protocol as described before.

C. elegans [3] = experiment: Worm respiration assay (Seahorse XF24); type: in vivo; settings: day 3 adult worms
Procedure: Worm Respiration Assays Oxygen consumption was measured using the Seahorse XF24 equipment (Seahorse Bioscience Inc., North Billerica, Mass.) as described in Yamamoto et al. Typically, 200 animals per conditions were recovered from NGM plates with M9 medium, washed three times in 2 mLM9 to eliminate residual bacteria, and resuspended in 500 μL M9 medium. Worms were transferred in 24-well standard Seahorse plates (#100777-004) (50 worms per well) and oxygen consumption was measured 6 times. Respiration rates were normalized to the number of worms in each individual well. NAD measurement by HPLC For NAD+ quantification, approximately 1000 worms were collected in M9 buffer, washed five times to remove residual bacteria and flash-frozen in liquid nitrogen and stored at −80° C. until analysis. Extraction was started by adding 250 μl of 1.6M perchloric acid on frozen samples, followed by extensive homogenization in a Qiagen tissuelyser, and centrifugation at 20.000 g for 15 min. The supernatant was recovered and neutralized with a 3M potassium carbonate solution. After centrifugation, 100 μl of supernatant was filtered and used for NAD measurement using an HPLC system (Agilent) with a Supelco LC-18-T column (Sigma), as described in Yoshino et al. (Yoshino, K. F. Mills, M. J. Yoon, S. Imai, Nicotinamide Mononucleotide, a Key NAD(+) Intermediate, Treats the Pathophysiology of Diet- and Age-Induced Diabetes in Mice. Cell Metab 14, 528 (2011)).

C. elegans [4] = experiment: Quantitative RT-PCR in worms; type: in vivo
Procedure: mRNA and mtDNA Analysis. Total RNA was prepared using TRIzol (Invitrogen) according to the manufacturer's instructions. RNA was treated with DNase, and 2 μg of RNA was used for reverse transcription (RT). cDNA was purified on QIAquick PCR cleanup columns (Qiagen, Valencia, Calif., USA). 50× diluted cDNA was used for RT-quantitative PCR (RT-VCR) VCR) reactions (Bai et al., 2007). The RT-qPCR reactions were performed using the Light-Cycler system (Roche Applied Science) and a qPCR Supermix (Qiagen) with the primers for mice summarized in Table 1 and 4, and with the primers for worms summarized on Table 7. mtDNA quantification was performed as described (Lagouge et al., 2006) with the primers indicated in Table 2 and 5.

C. elegans [5] = experiment: Confocal microscopy of mitochondria in body wall muscle (pmyo-3::mito::GFP reporter); settings: in vivo
Procedure: Confocal Microscopy and Image Processing Worms were immobilized with 6 mM solution of tetramisole hydrochloride (Sigma, Buchs, Switzerland) in M9 and mounted on 6% agarose pads on glass slides. Images of worms were acquired using Zeiss LSM 700 Upright confocal microscope (Carl Zeiss AG, Oberkochen, Germany) under non-saturating exposure conditions. All the snapshots were taken from the same part of C. elegans: muscles from the upper part of the worm, excluding the regions of oesophagus and vulva. For each condition multiple worms were observed and imaged. Image processing was performed with the Fiji software. One of the critical issues during the imaging process was the position of the worm, as it influences the level of background. For the uniformity of the represented images, contrast and brightness were adjusted in order, to eliminate the undesirable background signal. Neither of these manipulations was affecting the mitochondrial shape. Tracing of the mitochondrial network contour was done by the use of Gaussian blur filter followed by the application of Laplacian operator.

C. elegans [6] = experiment: MitoSox staining of worms (mitochondrial superoxide); type: in vivo; settings: day 3
Procedure: Briefly, a population of 100 worms was recovered in 1 ml of M9 buffer, washed three times to remove residual bacteria, and resuspended in 200 μl of 1:200 MitoSox stock solution (initial stock solution was dissolved at 1 mM in DMSO). After 20 minutes of treatment, worms were washed five times in 1 ml of M9 buffer to eliminate the MitoSox reagent, and then transferred in a black-walled 96-well plate for reading. Fluorescence produced by the Mitosox reaction was measured as described before.

Structure (SMILES): O=C(c1cc(Cc2n[nH]c(=O)c3ccccc23)ccc1F)N1CCN(C(=O)C2CC2)CC1 [AZD2281]
- lifespan extension (C. elegans [1]; 100 nM (FIG. 34B)): 22.9%
- mean lifespan ± SE (C. elegans [1]; N2, 100 nM, listed as AZD): 22.8 ± 0.9 days and 24.7 ± 0.669 days and 26.5 ± 0.77 days and 24.5 ± 0.94 days and 24.7 ± 0.55 days
- mean lifespan ± SE (C. elegans [1]; N2, 500 nM): 22.2 ± 1.15 days
- variation compared to control (%) (C. elegans [1]; N2, 500 nM): +14.4%
- mean lifespan ± SE (C. elegans [1]; N2, 1000 nM): 21.2 ± 0.96 days
- variation compared to control (%) (C. elegans [1]; N2, 1000 nM): +9.2%
- lifespan in daf-16 mutant worms (C. elegans [1]; daf-16(mu86) mutant worms): failed to increase lifespan; also recorded: fails to extend lifespan
- mean lifespan ± SE (C. elegans [1]; daf-16(mu86), 100 nM): 18.2 ± 0.76 days
- variation compared to control (%) (C. elegans [1]; daf-16(mu86), 100 nM): −16.1%
- mean lifespan ± SE (C. elegans [1]; pme-1(ok988), 100 nM): 26.1 ± 0.78 days
- variation compared to control (%) (C. elegans [1]; pme-1(ok988), 100 nM): +31.2%
- lifespan of the pme-1 mutant (C. elegans [1]; pme-1 mutant worms): not further extended; also recorded: pme-1-dependent manner
- lifespan in sir-2.1(ok434) mutant / sir-2.1 dependence (C. elegans [1]; sir-2.1(ok434) mutant worms): lost the AZD2281-induced longevity; also recorded: does not extend lifespan
- mean lifespan ± SE (C. elegans [1]; sir-2.1(ok434), 100 nM): 21.9 ± 0.528 days
- variation compared to control (%) (C. elegans [1]; sir-2.1(ok434), 100 nM): +6.7%
- accumulation of the aging pigment lipofuscin (C. elegans [2]): reduced lipofuscin accumulation; also recorded: decreased the accumulation of the aging pigment lipofuscin
- sod-3::GFP (C. elegans [2]): increase in sod-3::GFP
- oxygen consumption (respiration) (C. elegans [3]): robustly increased respiration; also recorded: Oxygen consumption was increased
- expression of genes of mitochondrial oxidative metabolism (cts-1, cox-4) (C. elegans [4]; day 3 of adulthood): increased expression of citrate synthase (cts-1) and cytochrome c oxidase subunit 4 (cox-4); also recorded: increased expression of genes involved in mitochondrial oxidative metabolism
- daf-16 expression (C. elegans [4]; in vivo): did not change expression of daf-16
- sod-3 expression (C. elegans [4]; in vivo): marked induction
- mitochondrial content in body wall muscle (C. elegans [5]): more dense mitochondrial network
- ROS production (mitoSOX) (C. elegans [6]): ROS production was decreased
